Data: US7183075B2, “Purified and isolated potassium-chloride cotransporter nucleic acids and polypeptides and therapeutic and screening methods using same” (Vanderbilt University, priority 2000, dated 2007)
Like-named read-outs stand apart in the source and are kept apart here.

Biological target: T1, hKCC2 (Homo sapiens, UniProt Q9H2X9, L143X/L381X/L939X)
T1 construct: expressed in transfected cells; host or cells: Xenopus laevis oocytes injected with 25 ng hKCC2 cRNA
T1 sequence (Q9H2X9 with tags, fused parts or gaps isoform Q9H2X9-2 L120X/L358X/L916X limits assumed): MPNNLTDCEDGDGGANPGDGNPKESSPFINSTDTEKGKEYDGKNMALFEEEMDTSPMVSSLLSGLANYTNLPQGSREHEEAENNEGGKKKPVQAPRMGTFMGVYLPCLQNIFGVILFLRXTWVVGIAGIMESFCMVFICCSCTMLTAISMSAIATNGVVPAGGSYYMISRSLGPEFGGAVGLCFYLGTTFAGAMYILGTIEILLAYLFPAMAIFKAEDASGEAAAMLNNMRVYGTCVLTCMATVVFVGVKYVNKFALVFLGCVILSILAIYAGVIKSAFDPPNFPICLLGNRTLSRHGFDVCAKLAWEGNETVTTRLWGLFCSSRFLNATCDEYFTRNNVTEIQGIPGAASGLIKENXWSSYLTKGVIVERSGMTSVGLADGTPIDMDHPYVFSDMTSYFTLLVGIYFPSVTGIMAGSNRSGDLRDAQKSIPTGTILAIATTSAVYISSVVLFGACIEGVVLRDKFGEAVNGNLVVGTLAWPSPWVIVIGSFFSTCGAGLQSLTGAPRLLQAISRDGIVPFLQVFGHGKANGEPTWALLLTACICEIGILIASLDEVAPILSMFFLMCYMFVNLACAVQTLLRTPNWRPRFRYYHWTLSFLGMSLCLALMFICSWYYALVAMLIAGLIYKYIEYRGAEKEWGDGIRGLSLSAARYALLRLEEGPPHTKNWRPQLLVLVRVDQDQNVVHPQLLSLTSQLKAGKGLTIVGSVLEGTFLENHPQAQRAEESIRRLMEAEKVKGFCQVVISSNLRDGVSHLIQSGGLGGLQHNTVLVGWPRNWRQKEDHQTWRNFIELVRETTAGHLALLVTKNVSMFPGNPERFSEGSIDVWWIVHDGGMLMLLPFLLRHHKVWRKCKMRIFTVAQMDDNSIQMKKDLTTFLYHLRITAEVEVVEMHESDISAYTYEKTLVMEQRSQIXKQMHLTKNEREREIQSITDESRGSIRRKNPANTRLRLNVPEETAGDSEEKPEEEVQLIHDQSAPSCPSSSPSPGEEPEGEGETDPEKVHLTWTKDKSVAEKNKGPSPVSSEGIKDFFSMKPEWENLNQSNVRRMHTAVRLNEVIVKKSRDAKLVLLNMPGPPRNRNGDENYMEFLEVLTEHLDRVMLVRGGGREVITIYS
Assay: 86Rb+ uptake (K+-Cl- cotransport) in Xenopus oocytes injected with hKCC2 cRNA
Format: cell-based
Protocol: Oocytes were surgically collected from anesthetized female Xenopus adults under 0.17% tricaine and incubated for 1 hour with vigorous shaking in frog Ringer ND96 (96 mM sodium chloride, 2 mM potassium chloride, 1.8 mM calcium chloride, 1.0 mM magnesium chloride, and 5 mM Hepes/Tris, pH 7.4) in the presence of 2 mg/ml collagenase B. Oocytes were then washed four times in ND96, manually defolliculated, and incubated overnight in ND96 at 18° C. On the next day, defolliculated stage V–VI oocytes were injected with 50 nl of water or a solution containing cRNA at a concentration of 0.25–0.5 μg/μl (25 ng/oocyte). Oocytes were incubated at 17–18° C. in ND96 (96 mM sodium chloride, 2 mM potassium chloride, 1.8 mM calcium chloride, 1.0 mM magnesium chloride, and 5 mM Hepes/Tris, pH 7.4), supplemented with 2.5 mM sodium pyruvate and 5 mg/100 ml gentamicin, for 3–4 days. The incubation medium was changed every 24 hours. On the day of the experiment, oocytes were switched to Cl^−-free ND96 (96 mM Na^+ Na^+ isethionate, 2 mM K^+ gluconate, 6 mM Ca^2+ gluconate, 1 mM Mg^2+ gluconate, 5 mM Hepes, 2.5 mM sodium pyruvate, 5 mg/100 ml gentamicin, pH 7.4) for 2 hours prior to the uptake assay.
K^+—Cl^− cotransport was assessed by measuring tracer ^86Rb^+ uptake (NEN® Life Science Products of Boston, Mass.) in experimental groups of at least 15 oocytes. […] All uptake solutions also contained 1.8 mM CaCl2, 1 mM MgCl2, 5 mM Hepes, pH 7.4, and were supplemented with 1 mM ouabain and […] ^86Rb^+. Isotonic conditions were generated by supplementing the same solutions with 3.5 g/100 ml sucrose to reach isosmolar conditions for oocytes (˜210 mOsm/kg). Ouabain was added to prevent ^86Rb^+ uptake via the Na^+—K^+-ATPase. The absence of extracellular Na^+ and the hypotonicity of the uptake medium prevented ^86Rb^+ uptake via the endogenous Na^+—K^+-2Cl^− cotransporter that is present in oocytes (Gamba et al. (1994) J Biol Chem 269:17713–17722).
All uptake assays were performed at 32° C. At the end of the uptake period, oocytes were washed five times in ice-cold uptake solution without isotope to remove extracellular fluid tracer. Oocytes were dissolved in 10% SDS, and tracer activity was determined for each oocyte by β-scintillation counting.
Uptake assays to detect K^+—Cl^− cotransport mediated by a hKCC2 were performed using similar methods.
FIG. 10 presents line graphs depicting concentration dependence of K^+—Cl^− cotransport mediated by hKCC2, which was used to calculate ion affinities using analogous methods. Uptake assays were simultaneously assessed in water-injected oocytes. To determine ^86Rb^+ uptake due to KCC2, the mean values for water groups were subtracted from the mean values for corresponding KCC2 groups. Uptake assays in hypotonic media were performed for 60 minutes with a fixed concentration of K^+or Cl^− at 50 mM. The concentration of the counterion was varied from 0 to 50 mM as indicated.

[1] = hKCC2, hypotonic, counterion fixed at 50 mM, 86Rb+ as substitute for K+, read-out: Km (Michaelis-Menten fit)

Cl [Chloride]
Km (KCC2, read-out: Chloride Km): 6.3 mM
Km [1]: 6.31 mM

[K+] [Potassium]
Km (KCC2, read-out: Potassium Km): 9.3 mM
Km [1]: 9.3 mM

NS(=O)(=O)c1cc(C(=O)O)c(NCc2ccco2)cc1Cl [furosemide]
IC50 (KCC2): 90 µM

HgCl2 [Hg—Cl2]
response of KCC2 to mercury (50 μM HgCl2, hypotonic): sensitive
